Values of other authors in article PMC11949389 (Polish Journal of Microbiology, 2025).
≈ marks a conversion by molar mass, not a printed value. Like-named read-outs stand apart in the source and are kept apart here.

What was measured:
Enterococcus sp. = details: ref Caballero Gómez et al. 2022
[1] = system: Staphylococcus pseudintermedius
Streptococcus suis = details: ref de Aguiar et al. 2019
Pseudomonas sp. = details: ref Caballero Gómez et al. 2022
Pseudomonas aeruginosa = details: Pseudomonas aeruginosa; ref Owen et al. 2019; Sim et al. 2019; Noumi et al. 2023
[2] = system: Staphylococcus aureus Pseudomonas fluorescens; details: ref Wang et al. 2020b
Campylobacter jejuni = details: C. jejuni; ref Šimunović et al. (2020)
[3] = system: carbapenem and polymyxin-resistant Klebsiella pneumoniae; details: murine models, compared to polymyxin B treatment; ref de Souza et al. (2021)
[4] = system: carbapenem-resistant E. coli and P. aeruginosa; details: ref Owen et al. (2019)
[5] = system: Vibrio anguillarum, and Vibrio harveyi; details: ref Rossi et al. (2021)
[6] = system: carbapenem-resistant Klebsiella pneumoniae (CRKP) strains; details: with meropenem, ref Köse (2022)

## Cc1ccc(C(C)C)cc1O [Carvacrol]
Enterococcus sp.
  MIC/Sensitivity: 100 to 450 µg/mL
[1]; S. pseudintermedius, ref Sim et al. (2019)
  MIC90: 146 µg/mL (≈ 972 µM)
[1]; Staphylococcus pseudintermedius, ref Sim et al. 2019
  MIC/Sensitivity: 146 to 292 µg/mL
Streptococcus suis
  MIC/Sensitivity: 156.25 µg/mL (≈ 1040 µM)
Pseudomonas sp.
  MIC/Sensitivity: 100 to 400 µg/mL
Pseudomonas aeruginosa
  MIC/Sensitivity: 585 to 1120 µg/mL
[2]
  Mechanisms of action: • Targeted extracellular polymeric substances • Disruption of biofilm structures
Campylobacter jejuni
  efflux pump inhibition: weaker effect
Candida auris; ref Ismail et al. 2022
  Mechanisms of action: • Induced oxidative stress • Increased CAT, SOD and GPx enzyme activity • Decreased GR and GST enzyme activity • Caused membrane disintegration
Candida auris; ref Shaban et al. 2020
  Mechanisms of action: • Reduced proteinase production and host cell adherence
[3]
  bacterial counts in infections: reduced bacterial counts
  survival: significantly improved survival
[4]
  activity: ineffective
[5]
  MIC: 940 to 7500 µM
[6]; checkerboard assays, CRKP
  FICI: 0.5
[6]
  CRKP strains with synergy: 8 of 25
